Experimental data published in PubChem BioAssay AID248 (DTP/NCI, 2004).
Values joined by “and” are separate entries in the source; they are usually repeats but may differ in a detail not shown here. Equal entries are not always repeated. Inconclusive results and toxic doses are left out. Rule as the data show it: active = T/C of 150% or more; inactive = T/C below 125%.

System: L1210 leukemia ip in BDF1 mice, survival T/C
Test: NCI In Vivo Anticancer Drug Screen. Data for tumor model L1210 Leukemia (intraperitoneal) in B6D2F1 (BDF1) mice
Conditions: endpoint: mean survival time, higher = longer survival
Procedure, shortened: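 Antitumor effect is assessed in tumor-bearing animals. Survival in the compound arm is compared with a vehicle-dosed control arm and expressed as their quotient.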

[1] = dose: 100.0 mg/kg/injection, schedule: Q04DX002 (ip), vehicle: saline with Tween-80
[2] = dose: 100.0 mg/kg/injection, schedule: Q04DX002 (ip), vehicle: saline
[3] = dose: 100.0 mg/kg/injection, schedule: Q01DX009 (ip), vehicle: Klucel (hydroxypropylcellulose) (HPC)
[4] = dose: 100.0 mg/kg/injection, schedule: Q04DX003 (ip), vehicle: Klucel (hydroxypropylcellulose) (HPC)
[5] = dose: 200.0 mg/kg/injection, schedule: Q01DX009 (ip), vehicle: Klucel (hydroxypropylcellulose) (HPC)
[6] = dose: 200.0 mg/kg/injection, schedule: Q04DX003 (ip), vehicle: Klucel (hydroxypropylcellulose) (HPC)
[7] = dose: 100.0 mg/kg/injection, schedule: Q04DX003 (ip), vehicle: saline
[8] = dose: 200.0 mg/kg/injection, schedule: Q04DX003 (ip), vehicle: saline
[9] = dose: 400.0 mg/kg/injection, schedule: Q04DX003 (ip), vehicle: saline
[10] = dose: 100.0 mg/kg/injection, schedule: Q01DX001 (ip), vehicle: saline
[11] = dose: 200.0 mg/kg/injection, schedule: Q01DX001 (ip), vehicle: saline
[12] = dose: 200.0 mg/kg/injection, schedule: Q04DX002 (ip), vehicle: saline

Measured: T/C

Clc1ccccc1/C=N/Nc1nnc(N/N=C/c2ccccc2Cl)c2ccccc12
inactive: dose: 50.0 mg/kg/injection, schedule: Q01DX001 (ip), vehicle: carboxymethylcellulose (CMC) 95 % of control | dose: 100.0 mg/kg/injection, schedule: Q01DX001 (ip), vehicle: carboxymethylcellulose (CMC) 89 % of control | dose: 200.0 mg/kg/injection, schedule: Q01DX001 (ip), vehicle: carboxymethylcellulose (CMC) 89 % of control | dose: 400.0 mg/kg/injection, schedule: Q01DX001 (ip), vehicle: carboxymethylcellulose (CMC) 89 % of control

CCOC=Nc1c(/C=C(/O)C(=O)OCC)c[n+]([O-])nc1OC
inactive: dose: 25.0 mg/kg/injection, schedule: Q04DX002 (ip), vehicle: saline with Tween-80 92 % of control | dose: 25.0 mg/kg/injection, schedule: Q04DX002 (ip), vehicle: saline 92 % of control | dose: 50.0 mg/kg/injection, schedule: Q04DX002 (ip), vehicle: saline with Tween-80 96 % of control | dose: 50.0 mg/kg/injection, schedule: Q04DX002 (ip), vehicle: saline 96 % of control | [1] 89 % of control | [2] 96 % of control

COc1ccc(CNCCNCc2ccc(OC)cc2)cc1
inactive: dose: 50.0 mg/kg/injection, schedule: Q01DX009 (ip), vehicle: Klucel (hydroxypropylcellulose) (HPC) 96 % of control | [3] 100 % of control | dose: 100.0 mg/kg/injection, schedule: Q01DX009 (ip), vehicle: water 98 % of control | [4] 103 % of control | dose: 100.0 mg/kg/injection, schedule: Q04DX003 (ip), vehicle: water 96 % of control | [5] 96 % of control | dose: 200.0 mg/kg/injection, schedule: Q01DX009 (ip), vehicle: water 92 % of control | [6] 94 % of control | dose: 200.0 mg/kg/injection, schedule: Q04DX003 (ip), vehicle: water 100 % of control | dose: 400.0 mg/kg/injection, schedule: Q01DX009 (ip), vehicle: water 89 % of control | dose: 400.0 mg/kg/injection, schedule: Q04DX003 (ip), vehicle: water 100 % of control

c1cc[c]([Sn]([O][Sn]([c]2ccccc2)([c]2ccccc2)[c]2ccccc2)([c]2ccccc2)[c]2ccccc2)cc1
inactive: dose: 5.0 mg/kg/injection, schedule: Q01DX001 (ip), vehicle: saline 102 % of control | dose: 10.0 mg/kg/injection, schedule: Q01DX001 (ip), vehicle: saline 100 % of control | dose: 20.0 mg/kg/injection, schedule: Q01DX001 (ip), vehicle: saline 102 % of control | dose: 40.0 mg/kg/injection, schedule: Q01DX001 (ip), vehicle: saline 93 % of control

CCOC(=O)c1cnc2c(OC)cccc2c1Cl
inactive: dose: 100.0 mg/kg/injection, schedule: Q01DX009 (ip), vehicle: saline 98 % of control | [7] 102 % of control | dose: 200.0 mg/kg/injection, schedule: Q01DX009 (ip), vehicle: saline 96 % of control | [8] 109 % of control | [9] 98 % of control

COc1cccc(CNc2ccc(C)c(Cl)c2)c1OC
inactive: dose: 100.0 mg/kg/injection, schedule: Q01DX009 (ip), vehicle: gum acacia 99 % of control | dose: 100.0 mg/kg/injection, schedule: Q04DX003 (ip), vehicle: gum acacia 104 % of control | dose: 200.0 mg/kg/injection, schedule: Q01DX009 (ip), vehicle: gum acacia 108 % of control | dose: 200.0 mg/kg/injection, schedule: Q04DX003 (ip), vehicle: gum acacia 97 % of control | dose: 400.0 mg/kg/injection, schedule: Q01DX009 (ip), vehicle: gum acacia 87 % of control | dose: 400.0 mg/kg/injection, schedule: Q04DX003 (ip), vehicle: gum acacia 90 % of control

O=C1C=CC(=O)N1c1ccc2c(c1)oc(=O)c1ccccc12
inactive: dose: 37.5 mg/kg/injection, schedule: Q01DX009 (ip), vehicle: saline with Tween-80 92 % of control | dose: 50.0 mg/kg/injection, schedule: Q04DX003 (ip), vehicle: saline 96 % of control | [10] 97 % of control | [7] 96 % of control | [11] 92 % of control | [8] 97 % of control

CC(C)C(NC(=O)OC(C)(C)C)C(=O)O (stereo not given)
inactive: dose: 12.5 mg/kg/injection, schedule: Q01DX009 (ip), vehicle: alcohol 106 % of control | dose: 25.0 mg/kg/injection, schedule: Q01DX009 (ip), vehicle: alcohol 109 % of control | dose: 25.0 mg/kg/injection, schedule: Q04DX003 (ip), vehicle: other 107 % of control | dose: 50.0 mg/kg/injection, schedule: Q01DX009 (ip), vehicle: alcohol 96 % of control | dose: 50.0 mg/kg/injection, schedule: Q04DX003 (ip), vehicle: other 93 % of control and 108 % of control | [10] 103 % of control | dose: 100.0 mg/kg/injection, schedule: Q01DX009 (ip), vehicle: alcohol 104 % of control | dose: 100.0 mg/kg/injection, schedule: Q04DX003 (ip), vehicle: other 94 % of control and 96 % of control | dose: 200.0 mg/kg/injection, schedule: Q01DX009 (ip), vehicle: alcohol 107 % of control | dose: 200.0 mg/kg/injection, schedule: Q04DX003 (ip), vehicle: other 101 % of control and 103 % of control

CC(=O)c1ccc(CC23CC4CC(CC(C4)C2)C3)cc1
inactive: [3] 99 % of control | [5] 90 % of control | dose: 400.0 mg/kg/injection, schedule: Q01DX009 (ip), vehicle: Klucel (hydroxypropylcellulose) (HPC) 94 % of control

c1ccc(C2=C(c3ccccc3)CSSC2)cc1
inactive: dose: 50.0 mg/kg/injection, schedule: Q04DX003 (ip), vehicle: Klucel (hydroxypropylcellulose) (HPC) 100 % of control | [4] 100 % of control | [6] 100 % of control

CCSCCC#N
inactive: [2] 103 % of control | [12] 109 % of control

NC(=O)c1ccccc1NC(=O)Nc1cccc(F)c1
inactive: dose: 25.0 mg/kg/injection, schedule: Q01DX009 (ip), vehicle: saline with Tween-80 89 % of control | dose: 50.0 mg/kg/injection, schedule: Q01DX009 (ip), vehicle: saline with Tween-80 95 % of control | dose: 100.0 mg/kg/injection, schedule: Q01DX009 (ip), vehicle: saline with Tween-80 104 % of control | dose: 200.0 mg/kg/injection, schedule: Q01DX009 (ip), vehicle: saline with Tween-80 90 % of control | dose: 400.0 mg/kg/injection, schedule: Q01DX009 (ip), vehicle: saline with Tween-80 96 % of control

NC(=N\C1=NCCO1)/C(N)=N/C1=NCCO1
inactive: [7] 109 % of control | [8] 107 % of control | [9] 97 % of control

C(=C/[PH+](c1ccccc1)c1ccccc1)/[PH+](c1ccccc1)c1ccccc1.C(=C/[PH+](c1ccccc1)c1ccccc1)/[PH+](c1ccccc1)c1ccccc1.[O-][Cl+3]([O-])([O-])O.[Rh]
inactive: dose: 100.0 mg/kg/injection, schedule: Q01DX001 (ip), vehicle: saline with Tween-80 92 % of control | dose: 400.0 mg/kg/injection, schedule: Q01DX001 (ip), vehicle: saline with Tween-80 89 % of control

CCCCOB(OCCCC)c1ccc(B(OCCCC)OCCCC)cc1
inactive: [10] 97 % of control | [11] 101 % of control | dose: 400.0 mg/kg/injection, schedule: Q01DX001 (ip), vehicle: saline 89 % of control

CN(C)c1nc(N)c(N=O)c(N)n1
inactive: [1] 111 % of control | dose: 200.0 mg/kg/injection, schedule: Q04DX002 (ip), vehicle: saline with Tween-80 107 % of control | dose: 400.0 mg/kg/injection, schedule: Q04DX002 (ip), vehicle: saline with Tween-80 104 % of control

CCCCCCCC(=O)Nc1cccc(C)c1C
inactive: dose: 100.0 mg/kg/injection, schedule: Q04DX003 (ip), vehicle: saline with Tween-80 101 % of control | dose: 200.0 mg/kg/injection, schedule: Q04DX003 (ip), vehicle: saline with Tween-80 87 % of control | dose: 400.0 mg/kg/injection, schedule: Q04DX003 (ip), vehicle: saline with Tween-80 101 % of control

c1ccc(C(CN2CCCCC2)c2ccccc2)cc1
inactive: dose: 44.0 mg/kg/injection, schedule: Q01DX Z (ip), vehicle: methylcellulose (MC) 93 % of control | dose: 66.0 mg/kg/injection, schedule: Q01DX Z (ip), vehicle: methylcellulose (MC) 96 % of control | dose: 100.0 mg/kg/injection, schedule: Q01DX Z (ip), vehicle: methylcellulose (MC) 105 % of control

CCCCCCC(=O)N1C(C)CCCC1C (stereo not given)
inactive: [2] 107 % of control | [12] 103 % of control | dose: 400.0 mg/kg/injection, schedule: Q04DX002 (ip), vehicle: saline 92 % of control
